Laboratory results reported in PMC8510236, “Unraveling the Compositional and Molecular Features Involved in Lysozyme-Benzothiazole Derivative Interactions” (Molecules, 2021).
Structures can show the parent of a compound that is named as a salt.

Biological target: T1, Lysozyme from chicken egg white (Gallus gallus, UniProt P00698)
T1 construct: gene LYZ
Experiment: isothermal titration calorimetry (VP-ITC)
Assay type: binding
Settings: read-out: K

T1 sequence (P00698 19-147): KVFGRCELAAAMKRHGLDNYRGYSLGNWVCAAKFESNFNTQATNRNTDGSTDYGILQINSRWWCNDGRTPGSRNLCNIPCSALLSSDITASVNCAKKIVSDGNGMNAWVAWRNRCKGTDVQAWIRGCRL

Kd: 2620 nM
SMILES: O=S(=O)(O)CCCSc1nc2ccccc2s1 [BTS, 3-(2-Benzohiazolylthio)-1-propane-sulfonic acid sodium salt]
